The structures appear in SMILES notation.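 A five-concentration, 48-hour dose response in 96-well plates underlies each endpoint, interpolated linearly between surrounding concentrations. The concentration for 50% growth inhibition is given as GI50.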 The source made the active and inactive calls. Rule as the data show it: active = GI50 up to about 1.1 µM and inactive = higher.

Some test systems named below: A498; A549; COLO 205; HCT-15; HL-60; Hs-578T; K562; LOX IMVI; MCF7; MDA-N; Malme-3M; OVCAR-3; SK-MEL-28; SNB-19; SR; SW-620; T47D; TK-10; UACC-257; UACC-62.
What all share (test): inhibition of tumour cell growth, NCI panel, 48 h

On to `Cn1c(=O)c2c(nc3sc4c(n32)C(=O)c2c(O)ccc(O)c2C4=O)n(C)c1=O`, for which the GI50 in the test on A498 is 22.1 µM (inactive); in the test on A549, 12.7 µM (inactive); with COLO 205, 3.46 µM (inactive); in the test on HCT-15 it was 1.73 µM; with HL-60 it was 0.51 µM (active); with Hs-578T, 16.3 µM (inactive). The GI50 was 0.64 µM (active) in the test with K562; 0.871 µM (active) in the test with LOX IMVI; 0.955 µM (active) in the test on MCF7; 1.86 µM (inactive) with MDA-N; 1.06 µM (active) in the test with Malme-3M; 4.67 µM (inactive) with OVCAR-3. Besides, the GI50 was 6.05 µM (inactive) in the test on SK-MEL-28; > 53.1 µM (inactive) in the test on SNB-19; 0.598 µM (active) in the test with SR; 0.406 µM (active) in the test with SW-620; 2.43 µM (inactive) in the test with T47D; 5.97 µM (inactive) in the test on TK-10. The GI50 in the test on UACC-257 is 11.2 µM (inactive); with UACC-62, 4.73 µM (inactive).

For `COC(=O)c1c2c(cc3c1CCC3)CCC2`, the GI50 in the test with A498 is 28.6 µM (inactive); with A549 it was 61.2 µM (inactive); with COLO 205 it was 96.2 µM (inactive); in the test with HCT-15, 57.8 µM; with HL-60, 15.5 µM (inactive); with Hs-578T, 35.8 µM (inactive). The GI50 in the test with K562 was 29.6 µM (inactive); in the test on LOX IMVI, 39.4 µM (inactive); in the test with MCF7 it was 38.7 µM (inactive); with MDA-N, 55.3 µM (inactive); in the test on Malme-3M, 48.2 µM (inactive); in the test with OVCAR-3, > 100 µM (inactive). The GI50 with SK-MEL-28 is 53.6 µM (inactive); in the test with SNB-19, > 100 µM (inactive); with SR, 18.2 µM (inactive); in the test with SW-620, > 100 µM (inactive); in the test on T47D it was 13.3 µM (inactive); in the test on TK-10, 57.4 µM (inactive). Also, the values for the GI50 in the test with UACC-257 and in the test with UACC-62 were 48 µM (inactive) and 51.1 µM (inactive), respectively.

As to `CCCCOC(=O)Nc1ccc(S(=O)(=O)Nc2ccccc2Cl)cc1`, the GI50 in the test with A498 was 12.8 µM (inactive); in the test with A549, 32.5 µM (inactive); with COLO 205 it was 20.7 µM (inactive); in the test on HCT-15 it was 21.3 µM; with HL-60, 16.9 µM (inactive); in the test on Hs-578T, 21.5 µM (inactive). Also, the GI50 in the test with K562 is 17.5 µM (inactive); in the test with LOX IMVI, 18.1 µM (inactive); in the test on MCF7, 19.2 µM (inactive); in the test with MDA-N, 17.6 µM (inactive); with Malme-3M, 24.8 µM (inactive); with OVCAR-3, 19.1 µM (inactive). Also, the GI50 was 19.6 µM (inactive) in the test on SK-MEL-28; 22.6 µM (inactive) with SNB-19; 4.04 µM (inactive) with SR; 14.1 µM (inactive) in the test with SW-620; 26.5 µM (inactive) with T47D; 21.6 µM (inactive) with TK-10. Moreover, the GI50 in the test on UACC-257 is 31.3 µM (inactive); in the test on UACC-62, 17.1 µM (inactive).

Turning to `C/C(=N\N=C(/S)N(C)C)c1cccnn1`, the GI50 with A498 is 1.22 µM (inactive); with A549, 0.832 µM (active); with COLO 205, 0.468 µM (active); with HCT-15, 0.468 µM; in the test on HL-60, 0.365 µM (active); with Hs-578T, > 66.4 µM (inactive). The GI50 was 0.794 µM (active) with K562; 0.495 µM (active) in the test with LOX IMVI; 0.726 µM (active) in the test with MCF7; 0.752 µM (active) in the test on MDA-N; 0.76 µM (active) in the test on Malme-3M; 0.424 µM (active) in the test on OVCAR-3. Further, the GI50 is 1.29 µM (inactive) with SK-MEL-28; 1.46 µM (inactive) with SNB-19; 0.293 µM (active) with SR; 0.612 µM (active) in the test on SW-620; 0.916 µM (active) with T47D; 4.05 µM (inactive) in the test with TK-10. The GI50 is 0.438 µM (active) in the test with UACC-257 and 0.486 µM (active) in the test with UACC-62.

In the case of `CC(C)(Cl)C(Br)CC/C(CBr)=C(/Cl)CCl.CC(C)(Cl)C(Br)CC/C(CBr)=C(\Cl)CCl` (stereo not given), the GI50 with A498 is 0.1 µM (active); with A549 it was > 10 µM (inactive); in the test with COLO 205, 0.607 µM (active); with HCT-15, 2.29 µM; in the test with HL-60 it was 0.94 µM (active); in the test with Hs-578T, 3.22 µM (inactive). Besides, the GI50 in the test on K562 is 1.01 µM (active); in the test with LOX IMVI, 1.61 µM (inactive); with MCF7 it was 2.13 µM (inactive); in the test with MDA-N, 1.8 µM (inactive); with Malme-3M it was 1.9 µM (inactive); in the test with OVCAR-3, 2.32 µM (inactive). For the same compound, the GI50 with SK-MEL-28 is 2.11 µM (inactive); in the test with SNB-19 it was 6.15 µM (inactive); with SR it was 0.331 µM (active); in the test on SW-620 it was 2.64 µM (inactive); with T47D, 2.32 µM (inactive); in the test with TK-10, 4.18 µM (inactive). In addition, the GI50 in the test on UACC-257 was 2.13 µM (inactive); with UACC-62, 1.5 µM (inactive).

Consider `O=C(NCCCNCCN1C(=O)c2cccc3cc([N+](=O)[O-])cc(c23)C1=O)c1cc(-c2ccccc2)nc2ccccc12`, for which the GI50 in the test with A498 was 4.2 µM (inactive); in the test with A549 it was 3.31 µM (inactive); in the test with COLO 205 it was 1.45 µM (inactive); with HCT-15, 3.03 µM; with HL-60 it was 1.76 µM (inactive); in the test on Hs-578T, 3.41 µM (inactive). The GI50 with K562 is 0.836 µM (active); in the test with LOX IMVI, 1.04 µM (active); in the test on MCF7, 2.17 µM (inactive); with MDA-N, 1.53 µM (inactive); with Malme-3M it was 1.81 µM (inactive); with OVCAR-3, 5.87 µM (inactive). In addition, the GI50 in the test on SK-MEL-28 is 1.85 µM (inactive); in the test on SNB-19, 3.72 µM (inactive); in the test with SR, 0.426 µM (active); in the test on SW-620, 0.955 µM (active); in the test with T47D, 8.07 µM (inactive); with TK-10, 7.74 µM (inactive). Moreover, the GI50 in the test with UACC-257 was 2.21 µM (inactive); in the test on UACC-62, 5.12 µM (inactive).

On to `C#C[C@]1(O)CC[C@H]2[C@@H]3CCC4=C/C(=N\OCCN(CC)CC)CC[C@]4(C)[C@H]3CC[C@@]21C`, for which the GI50 is 10.8 µM (inactive) in the test on A498; 5.77 µM (inactive) in the test with A549; 3.02 µM (inactive) with COLO 205; 5.6 µM with HCT-15; 0.586 µM (active) in the test on HL-60; 3.18 µM (inactive) in the test with Hs-578T. The GI50 with K562 is 3.09 µM (inactive); with LOX IMVI, 3.13 µM (inactive); with MCF7 it was 4.29 µM (inactive); in the test with MDA-N, 2.18 µM (inactive); in the test with Malme-3M it was 3.25 µM (inactive); with OVCAR-3, 2.87 µM (inactive). Moreover, the GI50 in the test on SK-MEL-28 was 7.66 µM (inactive); with SNB-19, 5.06 µM (inactive); in the test on SR, 2.94 µM (inactive); in the test with SW-620, 7.18 µM (inactive); in the test on T47D it was 6.3 µM (inactive); in the test with TK-10 it was 6.7 µM (inactive). Besides, the GI50 with UACC-257 is 4.31 µM (inactive); in the test with UACC-62, 3.44 µM (inactive).

On to `COc1ccc(C(C#N)NCCCCCCNC(C#N)c2ccc(OC)cc2)cc1` (stereo not given), for which the GI50 was > 100 µM (inactive) in the test on A498; > 100 µM (inactive) in the test with A549; > 100 µM (inactive) with COLO 205; over 100 µM in the test with HCT-15; > 100 µM (inactive) in the test on HL-60; > 100 µM (inactive) in the test with Hs-578T. The GI50 in the test with K562, with LOX IMVI, in the test on MCF7, with MDA-N, with Malme-3M and with OVCAR-3 was > 100 µM (inactive) each time. Also, the GI50 in the test with SK-MEL-28, in the test with SNB-19, in the test with SR, with SW-620, in the test on T47D and with TK-10 was > 100 µM (inactive) in each case. For the same compound, the GI50 in the test with UACC-257 and with UACC-62 was > 100 µM (inactive) each time.

As to `Cc1c(NC(=S)NN)c(=O)n(-c2ccccc2)n1C`, the GI50 in the test with A498 is > 100 µM (inactive); with A549 it was > 100 µM (inactive); with COLO 205, > 100 µM (inactive); with HCT-15 it was over 100 µM; with HL-60 it was > 100 µM (inactive); in the test with Hs-578T it was 93.8 µM (inactive). Also, the GI50 is > 100 µM (inactive) in the test with K562; > 100 µM (inactive) in the test on LOX IMVI; > 100 µM (inactive) in the test with MCF7; > 100 µM (inactive) in the test with MDA-N; 32.3 µM (inactive) in the test with Malme-3M; > 100 µM (inactive) with OVCAR-3. Besides, the GI50 in the test with SK-MEL-28, in the test with SNB-19, in the test on SR, in the test with SW-620, in the test with T47D and in the test with TK-10 was > 100 µM (inactive) each time. Also, the GI50 in the test on UACC-257 and in the test on UACC-62 was > 100 µM (inactive) in each case.
